The target in the assay is T1, receptor interacting protein kinase 1 (GST-hRIPK1 (8-327)) (Homo sapiens, UniProt Q13546).
T1 construct: GST-hRIPK1 (8-327) enzyme was generated by Proteros GmbH by Baculovirus expression system
T1 sequence (Q13546 8-327): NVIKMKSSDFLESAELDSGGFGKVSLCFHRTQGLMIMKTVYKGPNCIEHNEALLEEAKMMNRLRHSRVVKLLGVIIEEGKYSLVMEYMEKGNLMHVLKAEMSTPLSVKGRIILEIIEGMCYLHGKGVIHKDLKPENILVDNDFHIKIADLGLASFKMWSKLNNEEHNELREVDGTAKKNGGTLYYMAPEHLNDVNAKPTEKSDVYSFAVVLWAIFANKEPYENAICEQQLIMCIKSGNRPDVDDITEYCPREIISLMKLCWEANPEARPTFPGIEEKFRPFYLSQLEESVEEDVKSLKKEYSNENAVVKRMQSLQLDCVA
Nature of the assay: Fluorescent Polarization Binding (FP Binding) assay. Conditions: 10 nM GST-hRIPK1 (8-327), 5 nM fluorescent-labeled ligand, 30 min at RT. As for the experimental part: Fluorescent Polarization Binding (FP Binding) assay (Berger S. B. et al. (2015) Cell Death Discovery, 1: 15009; Maki J. L. et al. (2012) Anal Biochem., 427(2): 164-174) was performed in polystyrene low volume 384-well black plate, at Room Temperature (RT) in a final volume of 10.1 μl/well using 10 nM of GST-hRIPK1 (8-327) enzyme and 5 nM of fluorescent-labeled ligand (14-(2-{[3-({2-{[4-(cyanomethyl)phenyl]amino}-6-[(5-cyclopropyl-1H-pyrazol-3-yl)amino]-4-pyrimidinyl}amino) propyl]amino}-2-oxoethyl)-16,16,18,18-tetramethyl-6,7,7a,8a,9,10,16,18-octahydrobenzo[2″3″]indolizino[8″, 0.7″:5′,6′]pyrano[3′,2′:3,4]pyrido[1,2-a]indol-5-ium-2-sulfonate.
Test compounds were serially diluted in DMSO at 100 fold final concentrations in the assay (1% DMSO final). In each well of a 384-well Plate were dispensed 0.1 μL of compound solution (or DMSO for controls) followed by 5 μL of GST-hRIPK1 (8-327) at twice the final concentrations in assay-buffer (50 mM HEPES pH 7.5, 10 mM NaCl, 50 mM MgCl2, 0.02% CHAPS, 0.5 mM DTT and 0.01% Pluronic F127). For negative control the enzyme addition was replaced by assay buffer only.
After addition of 5 μL of fluorescent-labeled ligand at twice the final concentrations in assay buffer, the plate was incubated at RT for 30 min. At the end, the binding was measured as FP value with the Envision (PerkinElmer) plate reader using filter for an excitation λ=531 nm FP and an emission λ=595 nm FP (S & P-pol).
Test compound inhibition was expressed as percent inhibition of internal assay controls. For concentration response curves, normalized data is fit and IC50 determined using XL-fit (IDBS) for Excel. IC50 were averaged to determine a mean value, for a minimum of two independent experiments.
Receptor interacting protein kinase 1 activity of exemplary compounds was determined according to the above general procedures.
Receptor interacting protein kinase 1 activity of certain compounds was determined according to the above general procedures.
Regarding `CC1(C(=O)N2OCC[C@H]2c2ccc(F)c(F)c2)CCOC1` (single isomer, unassigned) [Compound 212], the IC50 – broadly, the concentration needed to halve the response being measured – was below 1000 nM. With `CC(C(=O)N1OCC[C@H]1c1ccc(C#N)cc1)C1CC1` (single isomer, unassigned) [Compound 213] the figure was below 1000 nM; with `CC(C(=O)N1OCC[C@H]1c1ccc(C#N)cc1)C1CC1` (single isomer, unassigned) [Compound 214], below 1000 nM; with `CC1CC1C(=O)N1OCC[C@H]1c1ccc(C#N)cc1` (single isomer, unassigned) [Compound 215], below 1000 nM. Then `CC1CC1C(=O)N1OCC[C@H]1c1ccc(C#N)cc1` (single isomer, unassigned) [Compound 216], with 1000 to 10000 nM; and `Cc1ncc([C@@H]2CCON2C(=O)C(C)C2CC2)cc1F` (single isomer, unassigned) [Compound 217], with below 1000 nM; and `Cc1ncc([C@@H]2CCON2C(=O)C(C)C2CC2)cc1F` (single isomer, unassigned) [Compound 218], with below 1000 nM. Then `CC(CC(F)(F)F)C(=O)N1OCC[C@H]1c1ccc(C#N)cc1` (single isomer, unassigned) [Compound 230], with below 1000 nM; and `CC(CC(F)(F)F)C(=O)N1OCC[C@H]1c1ccc(C#N)cc1` (single isomer, unassigned) [Compound 231], with below 1000 nM. `CC(CC(F)F)C(=O)N1OCC[C@H]1c1ccc(C#N)cc1` (single isomer, unassigned) [Compound 232]: the IC50 was below 1000 nM.

`CC(CC(F)F)C(=O)N1OCC[C@H]1c1ccc(C#N)cc1` (single isomer, unassigned) [Compound 233] registered a half-inhibitory concentration (IC50) below 1000 nM. `O=C(C1CC1(F)F)N1OCC[C@H]1c1ccc(F)cc1` (single isomer, unassigned) [Compound 236]: the IC50 is below 1000 nM. Regarding `O=C(C1CC1(F)F)N1OCC[C@H]1c1ccc(F)cc1` (single isomer, unassigned) [Compound 237], the IC50 is below 1000 nM. Consider `C[C@H](O)C(=O)N1OCC[C@H]1c1ccccc1` [Compound 15, (2S)-2-Hydroxy-1-[(3S)-3-phenyl-1,2-oxazolidin-2-yl]propan-1-one], for which the IC50 was above 10000 nM. On to `O=C(c1cnn2ccccc12)N1OCC[C@H]1c1ccccc1` [Compound 21, (3S)-3-phenyl-2-{pyrazolo[1,5-a]pyridine-3-carbonyl}-1,2-oxazolidine], for which the IC50 lay in the range of 1000 to 10000 nM. Then `O=C(N1OCC[C@H]1c1ccc(F)cc1)C1(C(F)(F)F)CCCC1` [Compound 29, (3S)-3-(4-fluorophenyl)-2-[1-(trifluoromethyl)cyclo-pentanecarbonyl]-1,2-oxazolidine], with below 1000 nM; and `CC(C)(C)C(=O)N1OCC[C@@H]1c1cccc(F)c1F` [Compound 30, 1-[(3R)-3-(2,3-Difluorophenyl)-12-oxazolidin-2-yl]-2,2-dimethylpropan-1-one], with below 1000 nM. With `CC(C)(C)C(=O)N1OCC[C@H]1c1cccc(F)c1F` [Compound 31, 1-[(3S)-3-(2,3-Difluorophenyl)-1,2-oxazolidin-2-yl]-2,2-dimethylpropan-1-one] the figure was below 1000 nM; with `O=C(N1OCC[C@H]1c1ccc(F)cc1)C12CC(C1)C2` [Compound 32, (3S)-2-{Bicyclo[1.1.1]pentane-1-carbonyl}-3-(4-fluorophenyl)-1,2-oxazolidine], below 1000 nM. With `CC1(C(=O)N2OCC[C@H]2c2ccc(F)cc2)COC1` [Compound 33, (3S)-3-(4-Fluorophenyl)-2-(3-methyloxetane-3-carbonyl)-1,2-oxazolidine] the figure was below 1000 nM; with `O=C(N1OCC[C@H]1c1ccc(F)cc1)C1(F)CC1` [Compound 34, (3S)-2-(1-Fluorocyclopropane-carbonyl)-3-(4-fluorophenyl)-1,2-oxazolidine], below 1000 nM. Turning to `O=C(N1OCC[C@H]1c1ccc(F)cc1)C1(C(F)(F)F)CC1` [Compound 37, (3S)-3-(4-Fluorophenyl)-2-[1-(trifluoromethyl)cyclo-propanecarbonyl]-1,2-oxazolidine], the half-maximal inhibitory concentration (IC50) was below 1000 nM. With `CCC1(C(=O)N2OCC[C@H]2c2ccc(F)cc2)COC1` [Compound 38, (3S)-2-(3-Ethyloxetane-3-carbonyl)-3-(4-fluorophenyl)-1,2-oxazolidine] the figure was below 1000 nM; with `O=C(N1OCC[C@H]1c1ccc(F)cc1)C1(C(F)(F)F)CCC1` [Compound 39, (3S)-3-(4-Fluorophenyl)-2-[1-(trifluoromethyl)cyclo-butanecarbonyl]-1,2-oxazolidine], below 1000 nM; with `CN1CC(C)(C(=O)N2OCC[C@H]2c2ccc(F)cc2)C1` [Compound 42, (3S)-2-(1,3-Dimethylazetidine-3-carbonyl)-3-(4-fluorophenyl)-1,2-oxazolidine], above 10000 nM. With `CC1(C(=O)N2OCC[C@H]2c2ccc(F)cc2)CNC1` [Compound 43, (3S)-3-(4-Fluorophenyl)-2-(3-methylazetidine-3-carbonyl)-1,2-oxazolidine] the figure was above 10000 nM; with `CC(C)(C)OC(=O)N1CC(C)(C(=O)N2OCC[C@H]2c2ccc(F)cc2)C1` [Compound 44, tert-Butyl 3-[(3S)-3-(4-fluorophenyl)-1,2-oxazolidine-2-carbonyl]-3-methylazetidine-1-carboxylate], 1000 to 10000 nM.

`CC(C)(C)C(=O)N1OCC[C@@H]1c1ccnc(F)c1` [Compound 45, 1-[(3R)-3-(2-Fluoropyridin-4-yl)-1,2-oxazolidin-2-yl]-2,2-dimethylpropan-1-one] showed an IC50 of 1000 to 10000 nM.

For `CC(C)(C)C(=O)N1OCC[C@H]1c1ccnc(F)c1` [Compound 46, 1-[(3S)-3-(2-Fluoropyridin-4-yl)-1,2-oxazolidin-2-yl]-2,2-dimethylpropan-1-one], the IC50 is below 1000 nM. Then `CC(C)(C)C(=O)N1OCC[C@H]1c1ccc(Cl)cc1` [Compound 47, 1-[(3S)-3-(4-Chlorophenyl)-1,2-oxazolidin-2-yl]-2,2-dimethylpropan-1-one], with below 1000 nM. `CC(C)(C)C(=O)N1OCC[C@@H]1c1ccc(Cl)cc1` [Compound 48, 1-[(3R)-3-(4-Chlorophenyl)-1,2-oxazolidin-2-yl]-2,2-dimethylpropan-1-one] came in with an IC50 above 10000 nM. With `CC(C)(C)OC(=O)N1OCCC1c1ccc(Cl)cc1` (stereo not drawn) [Compound 49, tert-Butyl 3-(4-chlorophenyl)-1,2-oxazolidine-2-carboxylate], the IC50 was below 1000 nM.

Take `CC(C)(C)C(=O)N1OCC[C@H]1c1ccc(F)c(F)c1` [Compound 50, 1-[(3S)-3-(3,4-Difluorophenyl)-1,2-oxazolidin-2-yl]-2,2-dimethylpropan-1-one]: the IC50 was below 1000 nM.

On to `CC(C)(C)C(=O)N1OCC[C@@H]1c1ccc(F)c(F)c1` [Compound 51, 1-[(3R)-3-(3,4-Difluorophenyl)-1,2-oxazolidin-2-yl]-2,2-dimethylpropan-1-one], for which the IC50 lay within 1000 to 10000 nM. With `O=C(N1OCC[C@H]1c1ccccc1)C1(C(F)(F)F)CC1` [Compound 54, (3S)-3-Phenyl-2-[1-(trifluoromethyl)cyclo-propanecarbonyl]-1,2-oxazolidine] the figure was below 1000 nM; with `CC(C)(C(=O)N1OCC[C@H]1c1ccccc1)C(F)(F)F` [Compound 55, 3,3,3-Trifluoro-2,2-dimethyl-1-[(3S)-3-phenyl-1,2-oxazolidin-2-yl]propan-1-one], below 1000 nM. `CC(C)(F)C(=O)N1OCC[C@H]1c1ccccc1` [Compound 56, 2-Fluoro-2-methyl-1-[(3S)-3-phenyl-1,2-oxazolidin-2-yl]propan-1-one] gave an IC50 below 1000 nM.

As for `CC1(C(=O)N2OCC[C@H]2c2ccccc2)CC(F)(F)C1` [Compound 57, (3S)-2-(3,3-difluoro-1-methylcyclobutane-carbonyl)-3-phenyl-1,2-oxazolidine], the IC50 is below 1000 nM. Turning to `CC(C)(C)C(=O)N1OCCC1c1cccnc1` (stereo not drawn) [Compound 58, 2,2-Dimethyl-1-[3-(pyridin-3-yl)-1,2-oxazolidin-2-yl]propan-1-one], the IC50 is below 1000 nM.

The record behind these values is US10709692B2, “Isoxazolidine derived inhibitors of receptor interacting protein kinase 1 (RIPK1)” (Denali Therapeutics Inc., priority 2015, dated 2020).
